The assay addresses T1, recombinant Plk1 protein (Homo sapiens, UniProt P53350).
T1 construct: histidine tag (N); made in house; host or cells: SF9 insect cells
The experiment in a line: Plk1 kinase activity inhibition assay (33P-ATP, alpha casein substrate, flash plates). Format: biochemical. The settings on record: enzymatic assay, 100 nM Li-ATP, 80 minutes at 30° C. A digest of the protocol:
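IC50 derived from radioactive flash-plate counts of 33P-labelled alpha casein after 80 min at 30 °C. Reaction: 100 nM 33P-containing ATP, 50–100 ng His-tagged Plk1 (SF9-expressed), 500 ng casein per well, HEPES pH 7.5 buffer with MgCl2/MnCl2.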
T1 sequence (P53350 whole entry): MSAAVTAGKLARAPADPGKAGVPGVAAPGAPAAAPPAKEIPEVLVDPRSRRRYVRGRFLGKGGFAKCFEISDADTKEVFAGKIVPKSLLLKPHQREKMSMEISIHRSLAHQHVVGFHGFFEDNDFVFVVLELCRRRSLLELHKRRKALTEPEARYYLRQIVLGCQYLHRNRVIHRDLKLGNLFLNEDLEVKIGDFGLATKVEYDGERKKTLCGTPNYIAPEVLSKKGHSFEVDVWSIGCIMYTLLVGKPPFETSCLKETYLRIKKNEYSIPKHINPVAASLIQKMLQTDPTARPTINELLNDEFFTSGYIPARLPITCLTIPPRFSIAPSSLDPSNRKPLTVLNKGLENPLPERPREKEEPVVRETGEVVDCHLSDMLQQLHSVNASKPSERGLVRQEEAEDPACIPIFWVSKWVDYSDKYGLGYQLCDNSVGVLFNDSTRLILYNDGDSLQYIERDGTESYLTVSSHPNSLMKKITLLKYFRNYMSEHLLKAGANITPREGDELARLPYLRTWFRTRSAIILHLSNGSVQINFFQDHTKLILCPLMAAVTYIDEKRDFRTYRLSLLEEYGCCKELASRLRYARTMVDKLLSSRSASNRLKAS
On to `CCC(Oc1cc(-n2cnc3cnc(CN4CCN(CCN(C)C)CC4)cc32)sc1C(N)=O)c1ccccc1Cl` (stereo not shown) [Example 151, 3-{[1-(2-chlorophenyl)propyl]oxy}-5-[6-({4-[2-(dimethylamino)ethyl]piperazin-1-yl}methyl)-1H-imidazo[4,5-c]pyridin-1-yl]thiophene-2-carboxamide], for which the IC50 – broadly, the concentration that inhibits the measured activity by half – lay within 100 to 1000 nM.

As to `C[C@@H](Oc1cc(-n2cnc3cnc(CN4CCC(N(C)C)C4)cc32)sc1C(N)=O)c1ccccc1C(F)(F)F` (stereo partly drawn) [Example 144, 5-(6-{[3-(dimethylamino)pyrrolidin-1-yl]methyl}-1H-imidazo[4,5-c]pyridin-1-yl)-3-{(1R)-1-[2-(trifluoromethyl)phenyl]ethoxy}thiophene-2-carboxamide], the IC50 was under 10 nM.

On to `CNCc1cc2ncn(-c3cc(O[C@H](C)c4ccccc4C(F)(F)F)c(C(N)=O)s3)c2cn1` [Example 116, 5-{6-[(methylamino)methyl]3H-imidazo[4,5-c]pyridin-3-yl}-3-{(1R)-1-[2-(trifluoromethyl)phenyl]ethoxy}thiophene-2-carboxamide], for which the IC50 lay within 10 to 100 nM.

Take `CC(Oc1cc(-n2cnc3cnccc32)sc1C(N)=O)c1ccccc1C(F)(F)F` (stereo not shown) [Example 14, 5-(1H-Imidazo[4,5-c]pyridin-1-yl)-3-{1-[2-(trifluoromethyl)phenyl]ethoxy}thiophene-2-carboxamide]: the IC50 was 10 to 100 nM.

As for `CCNCc1cc2c(cn1)ncn2-c1cc(O[C@H](C)c2ccccc2C(F)(F)F)c(C(N)=O)s1` [Example 112, 5-{6-[(ethylamino)methyl]-1H-imidazo[4,5-c]pyridin-1-yl}-3-{(1R)-1-[2-(trifluoromethyl)phenyl]ethoxy}thiophene-2-carboxamide], the IC50 lay in the range of 10 to 100 nM.

On to `C[C@@H](Oc1cc(-n2cnc3cnc(CN4CCN(c5ncccn5)CC4)cc32)sc1C(N)=O)c1ccccc1C(F)(F)F` [Example 77, 5-{6-[(4-pyrimidin-2-ylpiperazin-1-yl)methyl]-1H-imidazo[4,5-c]pyridin-1-yl}-3-{(1R)-1-[2-(trifluoromethyl)phenyl]ethoxy}thiophene-2-carboxamide], for which the IC50 was 10 to 100 nM.

For the compound `C[C@@H](Oc1cc(-n2cnc3cnc(CN4CCC(N5CCN(C)CC5)CC4)cc32)sc1C(N)=O)c1ccccc1C(F)(F)F` [Example 89, 5-(6-{[4-(4-methylpiperazin-1-yl)piperidin-1-yl]methyl}-1H-imidazo[4,5-c]pyridin-1-yl)-3-{(1R)-1-[2-(trifluoromethyl)phenyl]ethoxy}thiophene-2-carboxamide], the IC50 lay in the range of 10 to 100 nM.

With `C[C@@H](Oc1cc(-n2cnc3cc(CNC4CC4)ncc32)sc1C(N)=O)c1ccccc1C(F)(F)F` [Example 115, 5-{6-[(cyclopropylamino)methyl]-3H-imidazo[4,5-c]pyridin-3-yl}-3-{(1R)-1-[2-(trifluoromethyl)phenyl]ethoxy}thiophene-2-carboxamide], the concentration for half-maximal inhibition (IC50) is 10 to 100 nM.

On to `CN1CCN(Cc2cc3ncn(-c4cc(OCc5ccccc5C(F)(F)F)c(C(N)=O)s4)c3cn2)CC1` [Example 37, 5-{6-[(4-methylpiperazin-1-yl)methyl]-3H-imidazo[4,5-c]pyridin-3-yl}-3-{[2-(trifluoromethyl)benzyl]oxy}thiophene-2-carboxamide], for which the IC50 fell in the range of 1000 to 10000 nM.

With `CC(Oc1cc(-n2cnc3cc(CN4CCS(=O)(=O)CC4)ncc32)sc1C(N)=O)c1ccccc1F` (stereo not shown) [Example 161, 5-{6-[(1,1-dioxidothiomorpholin-4-yl)methyl]-3H-imidazo[4,5-c]pyridin-3-yl}-3-[-1-(2-fluorophenyl)ethoxy]thiophene-2-carboxamide], the IC50 lay within 1000 to 10000 nM.

Consider `NC(=O)c1sc(-n2cnc3cnccc32)cc1OCc1ccc(F)cc1C(F)(F)F` [Example 34, 3-{[4-fluoro-2-(trifluoromethyl)benzyl]oxy}-5-(1H-imidazo[4,5-c]pyridin-1-yl)thiophene-2-carboxamide], for which the IC50 was 10 to 100 nM.

On to `CCN1CCN(Cc2cc3c(cn2)ncn3-c2cc(O[C@H](C)c3ccccc3Cl)c(C(N)=O)s2)CC1` [Example 130, 3-[(1R)-1-(2-chlorophenyl)ethoxy]-5-{6-[(4-ethylpiperazin-1-yl)methyl]-1H-imidazo[4,5-c]pyridin-1-yl}thiophene-2-carboxamide], for which the 50% inhibitory concentration (IC50) was under 10 nM.

`CCNCc1cc2ncn(-c3cc(O[C@H](C)c4ccccc4C(F)(F)F)c(C(N)=O)s3)c2cn1` [Example 117, 5-{6-[(ethylamino)methyl]-3H-imidazo[4,5-c]pyridin-3-yl}-3-{(1R)-1-[2-(trifluoromethyl)phenyl]ethoxy}thiophene-2-carboxamide]: the IC50 was 100 to 1000 nM.

Turning to `C[C@@H](Oc1cc(-n2cnc3cnc(CN4CCN(CC(=O)N(C)c5ccccc5)CC4)cc32)sc1C(N)=O)c1ccccc1C(F)(F)F` [Example 86, 5-{6-[(4-{2-[methyl(phenyl)amino]-2-oxoethyl}piperazin-1-yl)methyl]-1H-imidazo[4,5-c]pyridin-1-yl}-3-{(1R)-1-[2-(trifluoromethyl)phenyl]ethoxy}thiophene-2-carboxamide], the IC50 lay within 10 to 100 nM.

Turning to `CCOc1ccc(OCC)c(COc2cc(-n3cnc4cnc(CN5CCN(C)CC5)cc43)sc2C(N)=O)c1` [Example 155, 3-[(2,5-diethoxybenzyl)oxy]-5-{6-[(4-methylpiperazin-1-yl)methyl]-1H-imidazo[4,5-c]pyridin-1-yl}thiophene-2-carboxamide], the IC50 was 100 to 1000 nM.

Consider `CCN(CC)Cc1cc2c(cn1)ncn2-c1cc(OCc2ccccc2C(F)(F)F)c(C(N)=O)s1` [Example 6, 5-{6-[(Diethylamino)methyl]-1H-imidazo[4,5-c]pyridin-1-yl}-3-{[2-(trifluoromethyl)benzyl]oxy}thiophene-2-carboxamide], for which the IC50 lay within 100 to 1000 nM.

On to `CC(Oc1cc(-n2cnc3ccncc32)sc1C(N)=O)c1ccccc1Cl` (stereo not shown) [Example 12, 3-[1-(2-Chlorophenyl)ethoxy]-5-(3H-imidazo[4,5-c]pyridin-3-yl)thio-phene-2-carboxamide], for which the IC50 is under 10 nM.

On to `CC1CN(Cc2cc3c(cn2)ncn3-c2cc(O[C@H](C)c3ccccc3C(F)(F)F)c(C(N)=O)s2)C(C)CN1` (stereo partly drawn) [Example 83, 5-{6-[(2,5-dimethylpiperazin-1-yl)methyl]-1H-imidazo[4,5-c]pyridin-1-yl}-3-{(1R)-1-[2-(trifluoromethyl)phenyl]ethoxy}thiophene-2-carboxamide], for which the half-inhibitory concentration (IC50) was in the range of 10 to 100 nM.

For the compound `C[C@@H](Oc1cc(-n2cnc3cnc(CN4CCCN(C)CC4)cc32)sc1C(N)=O)c1ccccc1C(F)(F)F` [Example 164, 5-{6-[(4-methyl-1,4-diazepan-1-yl)methyl]-1H-imidazo[4,5-c]pyridin-1-yl}-3-{(1R)-1-[2-(trifluoromethyl)phenyl]ethoxy}thiophene-2-carboxamide], the IC50 was under 10 nM.

Turning to `NC(=O)c1sc(-n2cnc3ccncc32)cc1OCc1ccc(F)cc1C(F)(F)F` [Example 41, 3-{[4-fluoro-2-(trifluoromethyl)benzyl]oxy}-5-(3H-imidazo[4,5-c]pyridin-3-yl)thiophene-2-carboxamide], the IC50 fell in the range of 10 to 100 nM.

Consider `COc1cc2ncn(-c3cc(OCc4ccccc4C(F)(F)F)c(C(N)=O)s3)c2cn1` [Example 17, 5-(6-Methoxy-3H-imidazo[4,5-c]pyridin-3-yl)-3-{[2-(trifluoromethyl)benzyl]oxy}thiophene-2-carboxamide], for which the IC50 fell in the range of 10 to 100 nM.

For the compound `C[C@@H](Oc1cc(-n2cnc3cnc(CN4CCC(O)CC4)cc32)sc1C(N)=O)c1ccccc1C(F)(F)F` [Example 64, 5-{6-[(4-hydroxypiperidin-1-yl)methyl]-1H-imidazo[4,5-c]pyridin-1-yl}-3-{(1R)-1-[2-(trifluoromethyl)phenyl]ethoxy}thiophene-2-carboxamide], the IC50 was under 10 nM.

For `C[C@@H](Oc1cc(-n2cnc3cnc(CN4CCOCC4)cc32)sc1C(N)=O)c1ccccc1C(F)(F)F` [Example 62, 5-[6-(morpholin-4-ylmethyl)-1H-imidazo[4,5-c]pyridin-1-yl]-3-{(1R)-1-[2-(trifluoromethyl)phenyl]ethoxy}thiophene-2-carboxamide], the IC50 fell in the range of 10 to 100 nM.

With `CC(Oc1cc(-n2cnc3cnc(CO)cc32)sc1C(N)=O)c1ccccc1C(F)(F)F` (stereo not shown) [Example 44, 5-[6-(hydroxymethyl)-1H-imidazo[4,5-c]pyridin-1-yl]-3-{1-[2-(trifluoromethyl)phenyl]ethoxy}thiophene-2-carboxamide], the IC50 was under 10 nM.

Take `C[C@@H](Oc1cc(-n2cnc3cnc(CN4CCN(CC5CCN(C)CC5)CC4)cc32)sc1C(N)=O)c1ccccc1C(F)(F)F` [Example 85, 5-[6-({4-[(1-methylpiperidin-4-yl)methyl]piperazin-1-yl}methyl)-1H-imidazo[4,5-c]pyridin-1-yl]-3-{(1R)-1-[2-(trifluoromethyl)phenyl]ethoxy}thiophene-2-carboxamide]: the IC50 lay in the range of 100 to 1000 nM.

With `CC(Oc1cc(-n2cnc3cnc(CN4CCN(C)CC4)cc32)sc1C(N)=O)c1ccc(F)cc1C(F)(F)F` (stereo not shown) [Example 97, 3-{1-[4-fluoro-2-(trifluoromethyl)phenyl]ethoxy}-5-{6-[(4-methylpiperazin-1-yl)methyl]-1H-imidazo[4,5-c]pyridin-1-yl}thiophene-2-carboxamide], the IC50 is under 10 nM.

Regarding `CCN1CCN(Cc2cc3c(cn2)ncn3-c2cc(O[C@H](C)c3ccccc3C(F)(F)F)c(C(N)=O)s2)CC1` [Example 107, 5-{6-[(4-ethylpiperazin-1-yl)methyl]-1H-imidazo[4,5-c]pyridin-1-yl}-3-{(1R)-1-[2-(trifluoromethyl)phenyl]ethoxy}thiophene-2-carboxamide], the IC50 is under 10 nM.

As for `CC(C)CN1CCN(Cc2cc3c(cn2)ncn3-c2cc(O[C@H](C)c3ccccc3C(F)(F)F)c(C(N)=O)s2)CC1` [Example 120, 5-{6-[(4-isobutylpiperazin-1-yl)methyl]-1H-imidazo[4,5-c]pyridin-1-yl}-3-{(1R)-1-[2-(trifluoromethyl)phenyl]ethoxy}thiophene-2-carboxamide], the IC50 is under 10 nM.

Values taken from patent publication US8273890B2 (4SC AG, priority 2007, dated 2012).
